In patent publication US20160138049A1, “OXYGEN-TOLERANT CoA-ACETYLATING [sequence] DEHYDROGENASE CONTAINING PATHWAY FOR BIOFUEL PRODUCTION” (The Regents of the University of California, priority 2013, published 2016):
Read-outs that look alike come from different tables or passages of the source.

Key:
[1] = system: S. elongatus strain BUOH-SE
Experimental: S. elongatus PCC7942 cells were grown according to the procedure in “culture medium and condition”. Once growth reached OD730 about 2, the culture was diluted to OD730 of 0.1 with 50 mL fresh BG11 medium containing 50 mM NaHCO3 and appropriate antibiotics. Then, various amounts of n-butanol were added into the culture to achieve the desired concentration (0, 250, 500, 750, and 1000 mg/L). Growth was measured daily. Every two days, 5 mL of culture was removed and 5 mL fresh BG-11 containing 500 mM NaHCO3, appropriate amounts of antibiotics and n-butanol was added back to the culture to ensure sufficient carbon supply.

[2] = system: S. elongatus strain BUOH-SE; experiment: n-Butanol toxicity test (growth); assay type: cell-based, Synechococcus elongatus PCC 7942
Experimental: Growth was measured daily.

[3] = molecular target: T1, Lactobacillus brevis PduP, CoA-acylating propionaldehyde dehydrogenase (PduP_L.bre, YP_795711, SEQ ID NO:47 and 48), poly-His6 tagged (Levilactobacillus brevis, UniProt Q03Q42); experiment: Kinetic parameters of PduP (CoA-acylating aldehyde dehydrogenase), NADH depletion at 340 nm; assay type: biochemical; details: pH 7.15, 30° C., 500 μM NADH, 1 mM DTT, acyl-CoA 0.03 mM to 2 mM
T1 sequence (Q03Q42 1-477): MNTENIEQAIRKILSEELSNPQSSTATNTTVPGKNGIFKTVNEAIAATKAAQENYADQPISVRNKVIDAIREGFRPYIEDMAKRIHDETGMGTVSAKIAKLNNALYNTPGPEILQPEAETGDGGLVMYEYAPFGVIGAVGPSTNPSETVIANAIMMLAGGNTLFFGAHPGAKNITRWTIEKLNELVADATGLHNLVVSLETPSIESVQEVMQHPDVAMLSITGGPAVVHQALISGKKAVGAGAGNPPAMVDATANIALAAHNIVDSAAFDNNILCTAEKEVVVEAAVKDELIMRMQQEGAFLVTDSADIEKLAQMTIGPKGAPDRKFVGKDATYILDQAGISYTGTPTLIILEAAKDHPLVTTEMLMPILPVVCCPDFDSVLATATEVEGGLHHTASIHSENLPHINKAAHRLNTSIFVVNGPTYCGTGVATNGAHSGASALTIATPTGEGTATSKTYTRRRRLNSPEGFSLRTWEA
Experimental: (§1) Protein purification was done by using His-Spin Protein miniprep purification kit from Zymo following manufacturer's manual. Overnight culture of E. coli strain BL-21(DE3) harboring different pCDF-pdup plasmid was used to inoculate fresh 20 ml LB. The newly inoculated culture was incubated at 37° C. until OD600 nm reaches 0.6 which was then induced with 1 mM IPTG. The induced cultures were then incubated overnight in 30° C. rotary shaker to allow protein expression. The cultures were then harvested by centrifugation at 4,300×g for 20 min. The pellet was then resuspended with 1 mL of Zymo His-binding buffer and mixed with 1 mL of 0.1 mm glass beads (Biospec). The sample was then homogenated using TissueLyser II (Quiagen).
(§2) Enzyme assays were conducted by using Bio-Tek PowerWave XS microplate spectrophotometer. CoA-acylating aldehyde dehydrogenase activity was measured by the decrease of absorbance at 340 nm, corresponding to depletion of NADH. […] For determining specific activity for other chain length acyl-CoA, 500 μM was used. The mixture excluding acyl-CoA was incubated for 5 minutes at 30° C. The addition of the acyl-CoA initiated the reaction. kcat and Km were determined by nonlinear regression fitting to Michaelis-Menten equation using graphing software Origin.
(§3) To characterize these PduP homologues, plasmids harboring individual pduP genes were constructed with a poly-His6 tag (plasmids pCDF-pduP_ahyd, pCDF-pdup_kpne, pCDF-pdup_lbre, pCDF-pdup_lmon, pCDF-pdup_sent, and pCDF-pdup_pgin). PduP homologues were then purified under aerobic condition without cleaving off His tags. The activities of the enzymes were determined using acyl-CoA with different chain lengths, and the disappearance of NADH was monitored.
(§4) The efficiency of these PduP homologues were assessed.

[4] = molecular target: Salmonella enterica PduP, CoA-acylating propionaldehyde dehydrogenase (PduP_S.ent, AAD39015, SEQ ID NO:33 and 34), poly-His6 tagged (Salmonella enterica, UniProt Q9XDN1); experiment: as above; details: pH 7.15, 30° C., 500 μM NADH, 1 mM DTT, acyl-CoA 0.03 mM to 2 mM
Experimental: as §1, §2, §3, §4

[5] = molecular target: Porphyromonas gingivalis PduP, CoA-acylating propionaldehyde dehydrogenase (PduP_P.gin, YP_001928839, SEQ ID NO:51 and 52), poly-His6 tagged (Porphyromonas gingivalis, UniProt B2RIP7); experiment: as above; details: pH 7.15, 30° C., 500 μM NADH, 1 mM DTT, acyl-CoA 0.03 mM to 2 mM
Experimental: as §1, §2, §3, §4

[6] = molecular target: Listeria monocytigenes PduP, CoA-acylating propionaldehyde dehydrogenase (PduP_L.mon, NP_464690, SEQ ID NO:49 and 50), poly-His6 tagged (Listeria monocytogenes, UniProt Q8Y7V4); experiment: as above; details: pH 7.15, 30° C., 500 μM NADH, 1 mM DTT, acyl-CoA 0.03 mM to 2 mM
Experimental: as §1, §2, §3, §4

[7] = molecular target: Klebsiella pneumoniae PduP, CoA-acylating propionaldehyde dehydrogenase (PduP_K.pne, YP_001336844, SEQ ID NO:45 and 46), poly-His6 tagged (Klebsiella pneumoniae, UniProt A0ACD7U6D7); experiment: as above; details: pH 7.15, 30° C., 500 μM NADH, 1 mM DTT, acyl-CoA 0.03 mM to 2 mM
Experimental: as §1, §2, §3, §4

[8] = Substrate chain length specificity of PduP; assay type: biochemical; details: acyl-CoA chain lengths C2 to C12
Experimental: FIG. 3A-B Substrate chain length specificity of CoA-acylating aldehyde dehydrogenases, PduP. A) Specific activity of different PduP (pmol min^−1 mg^−1). B) Relative activity of PduP. Specific activity was determined with substrate concentration of 1 mM acyl-CoA, 500 uM NADH, 1 mM DTT in 50 mM potassium phosphate buffer at pH 7.15 at 30° C.
as §2, §3

[9] = substrate: CCCC(=O)SCCNC(=O)CCNC(=O)[C@H](O)C(C)(C)COP(=O)(O)OP(=O)(O)OC[C@H]1O[C@@H](n2cnc3c(N)ncnc32)[C@H](O)[C@@H]1OP(=O)(O)O; experiment: purified protein, by the assay type; details: other: pH 7.15, 30° C., 500 μM NADH, 1 mM DTT, acyl-CoA 0.03 mM to 2 mM
[10] = substrate: CC(=O)SCCNC(=O)CCNC(=O)[C@H](O)C(C)(C)COP(=O)(O)OP(=O)(O)OC[C@H]1O[C@@H](n2cnc3c(N)ncnc32)[C@H](O)[C@@H]1OP(=O)(O)O; experiment: purified protein, by the assay type; details: other: pH 7.15, 30° C., 500 μM NADH, 1 mM DTT, acyl-CoA 0.03 mM to 2 mM
[11] = system: E. coli strain JCL166; experiment: E. coli anaerobic growth rescue with PduP and n-butanol pathway; assay type: cell-based; details: GC of culture medium
Experimental: Cells of E. coli strain JCL166 and its derivatives were cultured overnight in LB with appropriate antibiotics at 37° C. Overnight cultures (3 μL) were used to inoculate 3 mL of fresh LB media supplemented with 1% glucose and appropriate antibiotics (100 μg/mL ampicillin and 50 μg/mL kanamycin) and 0.1 mM IPTG in 10 mL BD vacutainers. A needle with Millipore PES filter was used to pierce through the rubber cap of the culture. The headspace of these cultures was then purged several times with 95% N2/5% H2 gas using an anaerobic chamber (Coy Lab Products, Grass Lake, Mich.). The needle with filter was removed in anaerobic chamber. These anaerobic cultures were then taken out of anaerobic chamber and incubated in 37° C. rotary shaker. Culture was analyzed 24 hours later for cell density and alcohol content measurement.
These PduP homologues were tested for n-butanol production utilizing an anaerobic growth rescue assay. E. coli strain JCL 166 (ΔadhE, ΔldhA, ΔfrdB) contains gene knock-outs for mixed acid fermentation. Fermentation pathways are essential for E. coli to recycle NADH back into to NAD^+ for the Embden-Meyerhof-Parnas pathway to continue (FIG. 2A). […] The culture medium of these anaerobically grown cultures were analyzed for alcohol production (FIG. 2C) using gas chromatography (GC).

[12] = CoA-acylating aldehyde dehydrogenase (PduP) assay, butyryl-CoA reduction; assay type: biochemical; details: purified under aerobic condition; 500 μM NADH, 1 mM DTT, pH 7.15, 30° C.
Experimental: as §1, §2, §3, §4

Chain of Listeria monocytigenes PduP, CoA-acylating propionaldehyde dehydrogenase (PduP_L.mon, NP_464690, SEQ ID NO:49 and 50), poly-His6 tagged (Q8Y7V4 entry or part of it): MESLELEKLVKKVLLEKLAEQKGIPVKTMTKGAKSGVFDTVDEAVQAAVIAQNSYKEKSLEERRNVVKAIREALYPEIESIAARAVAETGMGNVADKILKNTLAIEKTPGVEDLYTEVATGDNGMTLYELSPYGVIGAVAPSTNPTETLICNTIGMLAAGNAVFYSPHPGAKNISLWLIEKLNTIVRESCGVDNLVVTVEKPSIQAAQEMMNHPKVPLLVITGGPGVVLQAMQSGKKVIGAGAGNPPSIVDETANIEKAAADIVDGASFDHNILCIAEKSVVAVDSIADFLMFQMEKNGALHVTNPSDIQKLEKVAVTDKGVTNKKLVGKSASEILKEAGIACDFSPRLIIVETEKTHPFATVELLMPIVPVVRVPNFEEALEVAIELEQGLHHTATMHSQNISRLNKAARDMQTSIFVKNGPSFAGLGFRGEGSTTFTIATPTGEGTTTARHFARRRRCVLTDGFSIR
Chain of Salmonella enterica PduP, CoA-acylating propionaldehyde dehydrogenase (PduP_S.ent, AAD39015, SEQ ID NO:33 and 34), poly-His6 tagged (Q9XDN1 whole entry): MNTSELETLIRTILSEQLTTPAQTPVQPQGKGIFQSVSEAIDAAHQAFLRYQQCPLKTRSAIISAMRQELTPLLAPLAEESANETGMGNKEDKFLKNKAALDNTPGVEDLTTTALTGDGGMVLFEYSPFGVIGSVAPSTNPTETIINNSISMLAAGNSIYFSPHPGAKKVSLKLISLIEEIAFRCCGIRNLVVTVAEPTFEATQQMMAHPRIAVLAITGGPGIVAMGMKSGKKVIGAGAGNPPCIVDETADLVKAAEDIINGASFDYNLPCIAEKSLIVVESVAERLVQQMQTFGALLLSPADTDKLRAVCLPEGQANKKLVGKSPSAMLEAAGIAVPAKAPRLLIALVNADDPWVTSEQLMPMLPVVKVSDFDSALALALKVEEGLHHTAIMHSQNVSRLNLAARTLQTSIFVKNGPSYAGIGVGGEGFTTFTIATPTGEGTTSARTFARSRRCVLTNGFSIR
Chain of Porphyromonas gingivalis PduP, CoA-acylating propionaldehyde dehydrogenase (PduP_P.gin, YP_001928839, SEQ ID NO:51 and 52), poly-His6 tagged (B2RIP7 entry or part of it): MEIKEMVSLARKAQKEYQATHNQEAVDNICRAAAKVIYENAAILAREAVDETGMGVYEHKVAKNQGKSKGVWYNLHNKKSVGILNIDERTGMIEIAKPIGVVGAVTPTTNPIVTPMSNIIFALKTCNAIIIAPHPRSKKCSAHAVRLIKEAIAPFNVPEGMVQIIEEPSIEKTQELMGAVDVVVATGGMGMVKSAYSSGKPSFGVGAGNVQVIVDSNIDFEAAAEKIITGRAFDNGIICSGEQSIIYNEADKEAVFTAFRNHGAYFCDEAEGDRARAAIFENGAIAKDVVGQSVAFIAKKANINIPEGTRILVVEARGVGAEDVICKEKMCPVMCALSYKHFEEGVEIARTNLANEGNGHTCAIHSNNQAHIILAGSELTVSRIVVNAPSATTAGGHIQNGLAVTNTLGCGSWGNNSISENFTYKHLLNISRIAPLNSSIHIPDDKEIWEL

In the case of CCCCO [n-butanol], the “growth of S. elongatus strain BUOH-SE” value ([1]; 750 mg/L of n-butanol in culture medium) is reported as “visible growth retardation”, the “growth of S. elongatus strain BUOH-SE” value ([1]; 1 g/L of n-butanol) is reported as “cell growth is inhibited” and the “growth of S. elongatus strain BUOH-SE” value ([2]; 750 mg/L n-butanol in culture medium) is reported as “visible growth retardation”. For the same molecule, the “growth of S. elongatus strain BUOH-SE” value ([2]; 1 g/L n-butanol) was “cell growth is inhibited”.

Molecule CC(=O)SCCNC(=O)CCNC(=O)[C@H](O)C(C)(C)COP(=O)(O)OP(=O)(O)OC[C@H]1O[C@@H](n2cnc3c(N)ncnc32)[C@H](O)[C@@H]1OP(=O)(O)O [Acetyl-CoA, acetyl-CoA] has a kcat [3] of 0.26 ± 0.10 s⁻¹, a kcat [4] of 14.81 ± 1.00 s⁻¹ and a kcat [5] of 0.08 ± 0.01 s⁻¹. For the same molecule, the kcat [6] was 11.33 ± 0.97 s⁻¹ and the kcat [7] was 4.63 ± 0.19 s⁻¹.

B1: Lactobacillus brevis PduP, CoA-acylating propionaldehyde dehydrogenase (PduP_L.bre, YP_795711, SEQ ID NO:47 and 48), poly-His6 tagged (Levilactobacillus brevis … (protein)
chain: T1 sequence (Q03Q42 1-477)
For B1, the “Acyl-CoA substrate favoured (highest specific activity)” value [8] was “hexanoyl-CoA”, the Km [9] was 534.3 ± 59.8 µM and the Km [10] was 76.0 ± 38.2 µM. For the same molecule, the “Alcohol production from the growth rescue broth, n-butanol versus ethanol” value [11] was “more n-butanol than ethanol” and the “Specific activity for butyryl-CoA reduction” value [12] was 2.5 ± 0.2 µmol/min/mg.

B2: K. pne: PduP homologue from Klebsiella pneumoniae, YP_001336844; SEQ ID NO:45 and 46 (protein, listed as Klebsiella pneumoniae)
chain: MNTAELETLIRTILSEKLAPTPPAPQQEQGIFCDVGSAIDAAHQAFLRYQQCPLKTRSAIISALRETLAPELATLAEESATETGMGNKEDKYLKNKAALENTPGIEDLTTSALTGDGGMVLFEYSPFGVIGAVAPSTNPTETIINNSISMLAAGNSVYFSPHPGAKKVSLKLIARIEEIAYRCSGIRNLVVTVAEPTFEATQQMMSHPLIAVLAITGGPGIVAMGMKSGKKVIGAGAGNPPCIVDETADLVKAAEDIISGAAFDYNLPCIAEKSLIVVASVADRLIQQMQDFDALLLSRQEADTLRAVCLPDGAANKKLVGKSPAALLAAAGLAVPPRPPRLLIAEVEANAPWVTCEQLMPVLPIVRVADFDSALALALRVEEGLHHTAIMHSQNVSRLNLAARTLQTSIFVKNGPSYAGIGVGGEGFTTFTIATPTGEGTTSARTFARLRRCVLTNGFSIR
For B2, the “Acyl-CoA substrate favoured (highest specific activity)” value [8] was “highest for propionyl-CoA reduction”, the “Alcohol production from the growth rescue broth, n-butanol versus ethanol” value [11] was “more n-butanol than ethanol” and the “Specific activity for butyryl-CoA reduction” value [12] was 8.9 ± 4.6 µmol/min/mg.
